Experimental data as given in paper PMC6277767, “Broad and Region-Specific Impacts of the Synthetic Cannabinoid CP 55,940 in Adolescent and Adult Female Mouse Brains” (Frontiers in Molecular Neuroscience, 2018).

System: CD1 female mouse brain lipidome
Test: Brain-region lipid levels (HPLC/MS/MS lipidomics) 2 h after single i.p. 3 mg/kg CP 55,940 vs vehicle
Type: in vivo
Set-up: N-arachidonoyl phenylalanine level, Mean / N-stearoyl tryptophan level, Mean / N-stearoyl proline level, Mean / N-stearoyl leucine level, Mean / N-stearoyl phenylalanine level, Mean / N-stearoyl serine level, Mean / N-stearoyl methionine level, Mean: unit: moles per gram
Conditions: thalamus
Method: The Bloomington Institutional Animal Care and Use Committee of Indiana University reviewed and approved the animal procedures. Female mice from the CD1 strain were utilized to match our study examining THC’s effects on the brain lipidome ([Leishman et al., 2018]). Mice were given a single i.p. injection of either 3 mg/kg CP or 1:1:18 cremophor:ethanol:saline vehicle (please refer to the section “3 mg/kg CP Is Relevant for Synthetic Cannabinoid Abuse and Has Stronger Effects on the Female Mouse Brain Lipidome During Adolescence” for a justification of dose and use of female mice). Three different age groups were given injections: PND 35 and PND 50 adolescents, and adult mice (PND 113). At least eight mice in each age group received CP and at least eight received vehicle. Matching the THC study time course ([Leishman et al., 2018]), mice were sacrificed via rapid decapitation 2 h after injection. Brains were immediately removed and flash-frozen in liquid nitrogen, and then stored at -80°C until dissections were performed. Brains were dissected on an ice-cold dissection plate into the following regions: STR, HIPP, CER, THAL, CTX, HYP, MID, and STEM. These abbreviations for these brain areas will be used exclusively when discussing the results generated by these specific dissections. Each dissected area was immediately placed in liquid nitrogen and then stored at -80°C until used for lipid extraction.
Tissue extracts were performed as previously described ([Bradshaw et al., 2006]; [Stuart et al., 2013]; [Raboune et al., 2014]; [Leishman et al., 2016a],[b], [2017], [2018]). First, samples were shock frozen in liquid nitrogen, weighed, and transferred to a centrifuge tube. The mass of the largest sample was multiplied by 50 to determine how many milliliters of HPLC-grade methanol (Fisher, Fair Lawn, NJ, United States) to add. Then, samples were spiked with 500 pmol deuterium-labeled NAGly (d8NAGly; Cayman Chemical, Ann Arbor, MI, United States). Samples were placed on ice in darkness for 2 h then individually homogenized and centrifuged at 19,000 × g for 20 min at 20°C. Supernatants were diluted with HPLC water (purified in house) to make a solution of 75% water, 25% supernatant. Lipids were partially purified on C18 solid phase extraction columns (Agilent, Palo Alto, CA, United States). A series of four elutions with 1.5 mL of 60%, 75%, 85%, and 100% methanol were collected ([Stuart et al., 2013]; [Leishman et al., 2016a],[b], [2018]).
As previously described ([Bradshaw et al., 2006]; [Tan et al., 2006]; [Smoum et al., 2010]; [Stuart et al., 2013]; [Tortoriello et al., 2013]; [Raboune et al., 2014]; [Leishman et al., 2016a],[b], [2017], [2018]), samples were analyzed using an Applied Biosystems API 3000 triple quadrupole mass spectrometer with electrospray ionization (Foster City, CA, United States). Using an Agilent XDB-C18 reversed phase analytical column and optimized mobile phase gradients, 20 μL from each elution were chromatographed. Two Shimadzu 10ADvp pumps (Columbia, MD, United States) provided the pressure for gradient elution. Mobile phase A: 20% methanol, 80% water (v/v) and 1 mM ammonium acetate (Sigma, St. Louis, MO, United States). Mobile phase B: 100% methanol, 1 mM ammonium acetate. Every method run began with 0% mobile phase B, reached 100% mobile phase B flowing at 0.2 mL/min, and gradually returned to 0% mobile phase B.
This screening library will be referred to as the lipidome when discussing data from this study. HPLC/MS/MS data were analyzed using Analyst software (Applied Biosystems) ([Bradshaw et al., 2006]; [Tan et al., 2006]; [Stuart et al., 2013]; [Tortoriello et al., 2013]; [Raboune et al., 2014]; [Leishman et al., 2016a],[b], [2017], [2018]). Chromatograms (Supplementary Figure 3) were generated by determining the retention time of analytes from the analytical column with a [M-1] or [M+1] parent peak and a fragmentation peak corresponding to the programmed values. […]

[1] = PND 50 female mice, 3 mg/kg CP 55,940
[2] = WT adult female mice, 3mg/kg CP 55,940

CCCCCCC(C)(C)c1ccc([C@@H]2C[C@H](O)CC[C@H]2CCCO)c(O)c1 [CP 55,940]
N-palmitoyl serine: Direction (relative to Veh) (PND 50, 3 mg/kg CP 55,940): ↓
N-palmitoyl serine: Magnitude (x Veh level) (PND 50, 3 mg/kg CP 55,940): 0.82 x Veh level
N-stearoyl serine: Direction (relative to Veh) (PND 50, 3 mg/kg CP 55,940): ↓
N-stearoyl serine: Magnitude (x Veh level) (PND 50, 3 mg/kg CP 55,940): 0.87 x Veh level
Oleic acid: Direction (relative to Veh) (PND 50, 3 mg/kg CP 55,940): ↓
Oleic acid: Magnitude (x Veh level) (PND 50, 3 mg/kg CP 55,940): 0.83 x Veh level
PGE2: Direction (relative to Veh) (PND 50, 3 mg/kg CP 55,940): ↓
PGE2: Magnitude (x Veh level) (PND 50, 3 mg/kg CP 55,940): 0.74 x Veh level
PGF2α: Direction (relative to Veh) (PND 50, 3 mg/kg CP 55,940): ↓
PGF2α: Magnitude (x Veh level) (PND 50, 3 mg/kg CP 55,940): 0.84 x Veh level
2-arachidonoyl glycerol level, Mean [1]: 2.19E-10
2-linoleoyl glycerol level, Mean [1]: 2.06E-10
2-oleoyl glycerol level, Mean [1]: 2.79E-09
2-palmitoyl glycerol level, Mean [1]: 1.02E-09
6-ketoPGF1α level, Mean [1]: 1.21E-11
11-OH-THC level, Mean [1]: BDL
11-nor-9-carboxyTHC level, Mean [1]: BDL
Arachidonic acid level, Mean [1]: 3.32E-10
Cannabidiol level, Mean [1]: BDL
Linoleic acid level, Mean [1]: 2.28E-10
N- stearoyl valine level, Mean [1]: 1.2E-13
N-arachidonoyl GABA level, Mean [1]: 1.06E-11
N-arachidonoyl dopamine level, Mean [1]: BDL
N-arachidonoyl ethanolamine level, Mean [1]: 3.67E-11
N-arachidonoyl glycine level, Mean [1]: 2.22E-12
N-arachidonoyl phenylalanine level, Mean [1]: 2.35E-13
N-arachidonoyl proline level, Mean [1]: BDL
N-arachidonoyl serine level, Mean [1]: 9.47E-12
N-arachidonoyl taurine level, Mean [1]: 2.48E-11
N-arachidonoyl tryptophan level, Mean [1]: BDL
N-arachidonoyl tyrosine level, Mean [1]: 3.46E-13
N-docosahexaenoyl GABA level, Mean [1]: 1.17E-12
N-docosahexaenoyl ethanolamine level, Mean [1]: 4.85E-11
N-docosahexaenoyl glycine level, Mean [1]: 2.76E-13
N-docosahexaenoyl leucine level, Mean [1]: 1.83E-13
N-docosahexaenoyl proline level, Mean [1]: BDL
N-docosahexaenoyl serine level, Mean [1]: 1.8E-11
N-docosahexaenoyl tryptophan level, Mean [1]: BDL
N-docosahexaenoyl tyrosine level, Mean [1]: 5.89E-13
N-docosahexaenoyl valine level, Mean [1]: BDL
N-linoleoyl GABA level, Mean [1]: 6.3E-13
N-linoleoyl ethanolamine level, Mean [1]: 5.72E-11
N-linoleoyl glycine level, Mean [1]: 1.48E-13
N-linoleoyl leucine level, Mean [1]: 4.17E-14
N-linoleoyl proline level, Mean [1]: BDL
N-linoleoyl serine level, Mean [1]: 6.59E-11
N-linoleoyl tryptophan level, Mean [1]: BDL
N-linoleoyl valine level, Mean [1]: BDL
N-nervonoyl valine level, Mean [1]: BDL
N-oleoyl GABA level, Mean [1]: 4.02E-12
N-oleoyl alanine level, Mean [1]: 7.11E-13
N-oleoyl dopamine level, Mean [1]: BDL
N-oleoyl ethanolamine level, Mean [1]: 9.26E-11
N-oleoyl glycine level, Mean [1]: 1.74E-12
N-oleoyl leucine level, Mean [1]: 5.99E-13
N-oleoyl methionine level, Mean [1]: 2.91E-13
N-oleoyl phenylalanine level, Mean [1]: 9.22E-13
N-oleoyl proline level, Mean [1]: BDL
N-oleoyl serine level, Mean [1]: 1.27E-10
N-oleoyl tryptophan level, Mean [1]: BDL
N-oleoyl tyrosine level, Mean [1]: 4.03E-13
N-palmitoyl GABA level, Mean [1]: 1.06E-11
N-palmitoyl alanine level, Mean [1]: 2.52E-12
N-palmitoyl ethanolamine level, Mean [1]: 7.34E-11
N-palmitoyl glycine level, Mean [1]: 9.61E-12
N-palmitoyl leucine level, Mean [1]: 1.53E-12
N-palmitoyl methionine level, Mean [1]: 1.27E-12
N-palmitoyl phenylalanine level, Mean [1]: 1.34E-12
N-palmitoyl proline level, Mean [1]: BDL
N-palmitoyl serine level, Mean [1]: 2.63E-11
N-palmitoyl tryptophan level, Mean [1]: BDL
N-palmitoyl tyrosine level, Mean [1]: 8.81E-13
N-palmitoyl valine level, Mean [1]: 1.92E-13
N-stearoyl GABA level, Mean [1]: 1.06E-11
N-stearoyl alanine level, Mean [1]: 5.6E-13
N-stearoyl ethanolamine level, Mean [1]: 3.31E-11
N-stearoyl glycine level, Mean [1]: 1.16E-12
N-stearoyl leucine level, Mean [1]: 1.04E-12
N-stearoyl methionine level, Mean [1]: 8.73E-13
N-stearoyl phenylalanine level, Mean [1]: 1.21E-12
N-stearoyl proline level, Mean [1]: BDL
N-stearoyl serine level, Mean [1]: 4.06E-11
N-stearoyl tryptophan level, Mean [1]: BDL
N-stearoyl tyrosine level, Mean [1]: 1.18E-13
Oleic acid level, Mean [1]: 3.18E-10
PGE2 level, Mean [1]: 8.74E-11
THC level, Mean [1]: BDL
2-arachidonoyl glycerol level, Mean [2]: 3E-09
2-linoleoyl glycerol level, Mean [2]: 2.71E-10
2-oleoyl glycerol level, Mean [2]: 3.61E-09
2-palmitoyl glycerol level, Mean [2]: 8.84E-11
6-ketoPGF1α level, Mean [2]: 3.33E-11
Arachidonic acid level, Mean [2]: 9.32E-10
Linoleic acid level, Mean [2]: 4.92E-10
N-arachidonoyl GABA level, Mean [2]: 2.04E-11
N-arachidonoyl alanine level, Mean [2]: 9.44E-13
N-arachidonoyl ethanolamine level, Mean [2]: 1.69E-11
N-arachidonoyl glycine level, Mean [2]: 5.38E-13
N-arachidonoyl phenylalanine level, Mean [2]: 1.15E-13
N-arachidonoyl taurine level, Mean [2]: 5.3E-11
N-arachidonoyl tyrosine level, Mean [2]: 6.37E-13
N-docosahexaenoyl GABA level, Mean [2]: 9.36E-12
